From publication PMC6451745, “Development and dosimetry of ^203Pb/^212Pb-labelled PSMA ligands: bringing “the lead” into PSMA-targeted alpha therapy?” (European Journal of Nuclear Medicine and Molecular Imaging, 2019)
Several values for one entry are separate records, joined by “and”; a condition that tells them apart may be missing. Identical values can stand only once. Each block holds one compound with its values, some of them ahead of it.

What was measured:
C4-2 cells = experiment: Determination of specific internalization ratio; assay type: cell-based; conditions: for Specific lysate (specific internalization): ^203Pb-labelled compound 30 nM, 45 min, 2-PMPA blocking subtracted, mean ± SD n = 3
Procedure: In vitro and in vivo experiments were performed using the PSMA-positive C4-2 cell line, a subline of the LNCaP (lymph node carcinoma of the prostate) cell line (CRL-3314; American Type Culture Collection). C4-2 cells were cultivated in RPMI-1640 (PAN Biotech) supplemented with 10% fetal calf serum and stable glutamine (PAN Biotech). Cells were grown at 37 °C and incubated in humidified air equilibrated with 5% CO2.
For determination of the specific internalization ratio, 24-well plates were incubated for 20 min with 0.1% poly-L-lysine in PBS at room temperature and washed once with PBS. In the next step, 1 ml RPMI containing 1 × 10^5 C4-2 cells was added to each well and incubated overnight. The conditions during the experiment for each compound were: incubation at 37 °C or 4 °C with or without receptor blocking via 2-(phosphonomethyl)pentanedioic acid (2-PMPA; Axxora) at a final concentration of 500 μM. The cells were then incubated with 250 μl of a 30 nM solution of ^203Pb-labelled compound. The plates were incubated either for 45 min in a water bath at 37 °C or on ice at 4 °C. The cells were then washed three times with 1 ml ice-cold PBS and incubated with 0.5 ml glycine (50 mM in HCl, pH 2.8) for 5 min. After an additional washing step with 1 ml ice-cold PBS, the cells were lysed with 0.5 ml 0.3 M NaOH and collected, and the radioactivity was measured with a gamma counter for 1 min. The specific cellular uptake was determined as the percentage of initially added radioactivity bound per 10^6 cells (%IA/10^6 cells) by subtraction of the respective uptake under blocking conditions. All experiments were performed in triplicate.

C4-2 tumour-bearing mice = experiment: Biodistribution (organ distribution) in tumour-bearing mice; assay type: in vivo; conditions: 0.025 nmol i.v., C4-2 tumour-bearing mice, n = 3
Procedure: The in vivo experiments were carried out in accordance with the laws on animal welfare of the Federal Republic of Germany. For imaging and biodistribution studies, male BALB/c nu/nu mice (20–25 g; Charles River) bearing C4-2 tumour xenografts were used. The mice were inoculated subcutaneously in the right trunk with 5 × 10^6 C4-2 cells in 50% Matrigel in Opti-MEM (1×). For small-animal imaging the mice were anaesthetized with 2% sevoflurane, and then 0.1 nmol (1.0 MBq) of the respective ^203Pb ligand was injected into a tail vein. Serial planar scans were performed using a Gamma Imager-sct (Biospace Lab, Paris, France) with a parallel collimator (35 mm/1.8 mm/0.2 mm) after 10 min, 1 h, 4 h and 24 h. Based on the imaging results, compound CA012 was chosen for biodistribution studies. Experiments were performed in triplicate. For biodistribution, 0.025 nmol (1 MBq) of labelled compound per mouse was administered by injection into a tail vein. After 10 min, 1 h, 4 h and 24 h the mice were killed, the organs were dissected and weighed, and activity was measured using a gamma counter (Packard Cobra Auto-gamma). The organ uptakes were calculated as the percentage of the injected dose per gram of tissue (%ID/g).

[1] = tested on: patients with castration-resistant metastasized prostate cancer; experiment: ^203Pb-CA012 dosimetry from planar whole-body scans in patients (QDOSE/OLINDA); assay type: in vivo, human; conditions: diagnostic ^203Pb, two patients, male adult phantom in OLINDA
Procedure: OLINDA calculations were performed for all nuclides individually.

[2] = tested on: patients with castration-resistant metastasized prostate cancer; experiment: Dosimetry extrapolated from ^203Pb-CA012 to ^212Pb-CA012
Procedure: Images were loaded into the QDOSE dosimetry software suite (ABX-CRO, Dresden) and coregistered. […] These ROIs were used to determine time–activity curves (TAC) for each organ, tumours and the total body. The first time-point (before voiding) of the uncorrected geometric mean images was used to calibrate the ROI counts in relation to the injected activity. The red marrow TAC was calculated from venous blood (six samples per patient) using established model assumptions [10, 11].
Biexponential curve fitting was applied to all organ TACs (with the exception of a few tumours and glands which had to be fitted monoexponentially). The accumulated activity was integrated assuming a linear increase from time 0 to the first measured time-point, numerically from the first to the last measured time-point using trapezoidal approximations and from the last measured time-point to infinity using the fit function. The activity in the remainder of the body was calculated by subtracting the activity of all source organs from that of the total body.
The residence times in the kidneys, liver, spleen, urinary bladder contents, red marrow and remainder of the body were exported for dose calculations in OLINDA 1.1, using the organ masses of the adult phantom [12].
OLINDA calculations were performed for all nuclides individually. […] Tumour and salivary gland volumes were measured individually based on CT segmentation and their absorbed doses were approximated using a power function interpolating the spherical model estimates [15].

[3] = projected from therapeutic activity of 100 MBq
[4] = therapeutic ^212Pb incl. daughter nuclides, extrapolated from ^203Pb, RBE 5 for alpha, OLINDA male adult phantom

Organ distribution, Blood (C4-2 tumour-bearing mice; 10 min): 5.37 ± 1.95 % ID/g
Organ distribution, Brain (C4-2 tumour-bearing mice; 10 min): 0.14 ± 0.04 % ID/g
Organ distribution, Heart (C4-2 tumour-bearing mice; 10 min): 1.78 ± 0.66 % ID/g
Organ distribution, Kidneys (C4-2 tumour-bearing mice; 10 min): 26.97 ± 8.74 % ID/g
Organ distribution, Liver (C4-2 tumour-bearing mice; 10 min): 1.25 ± 0.43 % ID/g
Organ distribution, Lung (C4-2 tumour-bearing mice; 10 min): 4.31 ± 1.19 % ID/g
Organ distribution, Muscle (C4-2 tumour-bearing mice; 10 min): 1.20 ± 0.43 % ID/g
Organ distribution, Small intestine (C4-2 tumour-bearing mice; 10 min): 1.75 ± 0.48 % ID/g
Organ distribution, Spleen (C4-2 tumour-bearing mice; 10 min): 1.97 ± 1.07 % ID/g
Organ distribution, Tumor (C4-2 tumour-bearing mice; 10 min): 12.33 ± 1.92 % ID/g
Organ distribution, Blood (C4-2 tumour-bearing mice; 1 h): 0.26 ± 0.10 % ID/g
Organ distribution, Brain (C4-2 tumour-bearing mice; 1 h): 0.02 ± 0.00 % ID/g
Organ distribution, Heart (C4-2 tumour-bearing mice; 1 h): 0.10 ± 0.03 % ID/g
Organ distribution, Kidneys (C4-2 tumour-bearing mice; 1 h): 5.08 ± 2.45 % ID/g
Organ distribution, Liver (C4-2 tumour-bearing mice; 1 h): 0.20 ± 0.10 % ID/g
Organ distribution, Lung (C4-2 tumour-bearing mice; 1 h): 0.33 ± 0.13 % ID/g
Organ distribution, Muscle (C4-2 tumour-bearing mice; 1 h): 0.05 ± 0.03 % ID/g
Organ distribution, Small intestine (C4-2 tumour-bearing mice; 1 h): 0.10 ± 0.04 % ID/g
Organ distribution, Spleen (C4-2 tumour-bearing mice; 1 h): 0.16 ± 0.08 % ID/g
Organ distribution, Tumor (C4-2 tumour-bearing mice; 1 h, listed as 203Pb-PSMA-CA012): 8.4 ± 3.7 % ID/g and 8.37 ± 3.67 % ID/g
Organ distribution, Blood (C4-2 tumour-bearing mice; 4 h): 0.05 ± 0.01 % ID/g
Organ distribution, Brain (C4-2 tumour-bearing mice; 4 h): 0.02 ± 0.01 % ID/g
Organ distribution, Heart (C4-2 tumour-bearing mice; 4 h): 0.04 ± 0.02 % ID/g
Organ distribution, Kidneys (C4-2 tumour-bearing mice; 4 h): 1.61 ± 0.28 % ID/g
Organ distribution, Liver (C4-2 tumour-bearing mice; 4 h): 0.09 ± 0.01 % ID/g
Organ distribution, Lung (C4-2 tumour-bearing mice; 4 h): 0.10 ±0.03 % ID/g
Organ distribution, Muscle (C4-2 tumour-bearing mice; 4 h): 0.06 ± 0.03 % ID/g
Organ distribution, Small intestine (C4-2 tumour-bearing mice; 4 h): 0.07 ± 0.05 % ID/g
Organ distribution, Spleen (C4-2 tumour-bearing mice; 4 h): 0.07 ± 0.01 % ID/g
Organ distribution, Tumor (C4-2 tumour-bearing mice; 4 h): 7.81 ±0.86 % ID/g
Organ distribution, Blood (C4-2 tumour-bearing mice; 24 h): 0.03 ± 0.00 % ID/g
Organ distribution, Brain (C4-2 tumour-bearing mice; 24 h): 0.01 ± 0.00 % ID/g
Organ distribution, Heart (C4-2 tumour-bearing mice; 24 h): 0.02 ± 0.00 % ID/g
Organ distribution, Kidneys (C4-2 tumour-bearing mice; 24 h): 0.89 ± 0.14 % ID/g
Organ distribution, Liver (C4-2 tumour-bearing mice; 24 h): 0.10 ± 0.02 % ID/g
Organ distribution, Lung (C4-2 tumour-bearing mice; 24 h): 0.05 ± 0.01 % ID/g
Organ distribution, Muscle (C4-2 tumour-bearing mice; 24 h): 0.02 ± 0.00 % ID/g
Organ distribution, Small intestine (C4-2 tumour-bearing mice; 24 h): 0.02 ± 0.00 % ID/g
Organ distribution, Spleen (C4-2 tumour-bearing mice; 24 h): 0.07 ± 0.02 % ID/g
Organ distribution, Tumor (C4-2 tumour-bearing mice; 24 h): 3.30 ± 1.60 % ID/g
Effective dose [1]: 2.4 mSv/100 MBq
Effective dose equivalent [1]: 3.6 mSv/100 MBq
Equivalent dose, Adrenals [1]: 2.8 mSv/100 MBq
Equivalent dose, Brain [1]: 1.2 mSv/100 MBq
Equivalent dose, Breasts [1]: 1.1 mSv/100 MBq
Equivalent dose, Gallbladder [1]: 2.8 mSv/100 MBq
Equivalent dose, Heart [1]: 1.8 mSv/100 MBq
Equivalent dose, Kidneys [1]: 18.1 mSv/100 MBq
Equivalent dose, Liver [1]: 4.3 mSv/100 MBq
Equivalent dose, Lower large intestine [1]: 2.0 mSv/100 MBq
Equivalent dose, Lungs [1]: 1.6 mSv/100 MBq
Equivalent dose, Muscle [1]: 1.5 mSv/100 MBq
Equivalent dose, Osteogenic cells [1]: 3.7 mSv/100 MBq
Equivalent dose, Pancreas [1]: 2.8 mSv/100 MBq
Equivalent dose, Red marrow [1]: 1.8 mSv/100 MBq
Equivalent dose, Skin [1]: 1.0 mSv/100 MBq
Equivalent dose, Small intestine [1]: 2.1 mSv/100 MBq
Equivalent dose, Spleen [1]: 6.7 mSv/100 MBq
Equivalent dose, Stomach [1]: 2.0 mSv/100 MBq
Equivalent dose, Testes [1]: 1.4 mSv/100 MBq
Equivalent dose, Thymus [1]: 1.4 mSv/100 MBq
Equivalent dose, Thyroid [1]: 1.4 mSv/100 MBq
Equivalent dose, Total body [1]: 1.7 mSv/100 MBq
Equivalent dose, Upper large intestine [1]: 2.1 mSv/100 MBq
Equivalent dose, Urinary bladder [1]: 6.7 mSv/100 MBq
SMILES: NC(=O)CN1CCN(CC(N)=O)CCN(CC(=O)NCC2CCC(C(=O)NC(Cc3ccc4ccccc4c3)C(=O)NCCCC[C@H](NC(=O)N[C@@H](CCC(=O)O)C(=O)O)C(=O)O)CC2)CCN(CC(N)=O)CC1.[203Pb+2] (stereo partly drawn) [^203Pb-CA012]
specific ligand-induced internalization (C4-2 cells): ~16 %IA/10^6 cells
Specific lysate (specific internalization) (C4-2 cells): 15.6 ± 2.1 %IA/10^6 cells

SMILES: NC(=O)CN1CCN(CC(N)=O)CCN(CC(=O)NC[C@H]2CC[C@H](C(=O)N[C@@H](Cc3ccc4ccccc4c3)C(=O)NCCCC[C@H](NC(=O)N[C@@H](CCC(=O)O)C(=O)O)C(=O)O)CC2)CCN(CC(N)=O)CC1.[212Pb+2] [^212Pb-CA012]
cumulative dose limited by the kidneys (dose-limiting organ) ([2]; preliminary approximation): 400–600 MBq
Equivalent dose, Liver [2, 3]: 0.7 SvRBE5
Equivalent dose, other organs [2, 3]: 0.2 SvRBE5
Tissue equivalent dose, Kidneys [2, 3]: 4.9 SvRBE5
Tissue equivalent dose, Red marrow ([2]; projected from therapeutic activity of 100 MBq, instant decay of daughter nuclides assumed): 0.6 SvRBE5
Effective dose [2, 4]: 415.1 mSv RBE5/100 Mbq
Effective dose equivalent [2, 4]: 748.9 mSv RBE5/100 Mbq
Equivalent dose, Adrenals [2, 4]: 193.1 mSv RBE5/100 Mbq
Equivalent dose, Brain [2, 4]: 190.0 mSv RBE5/100 Mbq
Equivalent dose, Breasts [2, 4]: 190.0 mSv RBE5/100 Mbq
Equivalent dose, Gallbladder [2, 4]: 192.9 mSv RBE5/100 Mbq
Equivalent dose, Heart [2, 4]: 191.3 mSv RBE5/100 Mbq
Equivalent dose, Kidneys [2, 4]: 4906.6 mSv RBE5/100 Mbq
Equivalent dose, Liver [2, 4]: 703.3 mSv RBE5/100 Mbq
Equivalent dose, Lower large intestine [2, 4]: 191.3 mSv RBE5/100 Mbq
Equivalent dose, Lungs [2, 4]: 190.9 mSv RBE5/100 Mbq
Equivalent dose, Muscle [2, 4]: 190.7 mSv RBE5/100 Mbq
Equivalent dose, Osteogenic cells [2, 4]: 3796.4 mSv RBE5/100 Mbq
Equivalent dose, Pancreas [2, 4]: 192.9 mSv RBE5/100 Mbq
Equivalent dose, Red marrow [2, 4]: 615.1 mSv RBE5/100 Mbq
Equivalent dose, Skin [2, 4]: 189.8 mSv RBE5/100 Mbq
Equivalent dose, Small intestine [2, 4]: 191.8 mSv RBE5/100 Mbq
Equivalent dose, Spleen [2, 4]: 1606.7 mSv RBE5/100 Mbq
Equivalent dose, Stomach [2, 4]: 191.8 mSv RBE5/100 Mbq
Equivalent dose, Testes [2, 4]: 190.4 mSv RBE5/100 Mbq
Equivalent dose, Thymus [2, 4]: 190.7 mSv RBE5/100 Mbq
Equivalent dose, Thyroid [2, 4]: 190.5 mSv RBE5/100 Mbq
Equivalent dose, Total body [2, 4]: 237.8 mSv RBE5/100 Mbq
Equivalent dose, Upper large intestine [2, 4]: 191.8 mSv RBE5/100 Mbq
Equivalent dose, Urinary bladder [2, 4]: 200.2 mSv RBE5/100 Mbq

SMILES: NC(=O)CN1CCN(CC(N)=O)CCN(CC(N)=O)C(Cc2ccc(NC(=S)NCC3CCC(C(=O)NC(Cc4ccc5ccccc5c4)C(=O)NCCCC[C@H](NC(=O)N[C@@H](CCC(=O)O)C(=O)O)C(=O)O)CC3)cc2)CN(CC(N)=O)CC1.[203Pb+2] (stereo partly drawn) [^203Pb-CA009]
specific ligand-induced internalization (C4-2 cells): approximately 27 %ID/10^6 cells
Specific lysate (specific internalization) (C4-2 cells): 27.4 ± 2.4 %IA/10^6 cells
